In patent US12331051B2 (priority 2021, dated 2025):
Where two headings read alike, the source gives them in different places.

Legend:
[1] = target: T1, Alpha 2C adrenergic receptor (Homo sapiens, UniProt P18825); experiment: Functional assay in HEK-293 cells (cAMP); format: cell-based
T1 construct: expressed in transfected cells; host or cells: HEK-293
T1 sequence (P18825 1-462): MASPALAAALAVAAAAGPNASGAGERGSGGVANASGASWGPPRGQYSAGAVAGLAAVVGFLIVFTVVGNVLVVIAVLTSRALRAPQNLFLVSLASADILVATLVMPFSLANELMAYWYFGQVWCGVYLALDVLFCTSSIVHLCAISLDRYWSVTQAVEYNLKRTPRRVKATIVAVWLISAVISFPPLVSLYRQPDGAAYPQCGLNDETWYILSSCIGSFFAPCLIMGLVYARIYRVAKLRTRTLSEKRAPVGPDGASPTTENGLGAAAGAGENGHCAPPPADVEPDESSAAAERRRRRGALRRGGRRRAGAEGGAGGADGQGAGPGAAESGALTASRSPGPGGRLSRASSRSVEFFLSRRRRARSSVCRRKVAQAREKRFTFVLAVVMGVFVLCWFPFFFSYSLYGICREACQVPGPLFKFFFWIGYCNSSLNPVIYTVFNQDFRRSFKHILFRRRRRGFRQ
Description: (§1) Neuro-receptor binding and functional effects of the “E559 polymorph” was examined by analyzing binding affinity [Ki (nM)], functional agonist activity [EC50 (nM)], and functional antagonist activity [IC50 (nM)] against a panel of key receptors in neurophysiological disorders. Binding and functional assays were performed at “E559 polymorph” concentrations of 0.0003, 0.003, 0.01, 0.03, 0.1, 0.3, 1, and 10 μM. In binding assays, cell membrane homogenates, expressing each receptor target, were incubated with the corresponding radio-ligand in absence or presence of several concentration of the “E559 polymorph” compound. The measurement of binding affinity of the “E559 polymorph” is represented in TABLE XIII by Ki (nM) which was calculated as percent inhibition of the binding of a radioactively labeled reference ligand at each receptor. In functional assays the HEK-293 cells expressing each receptor target were suspended in buffer and distribute in microplates and incubated for 30 minutes at room temperature or 37° C. in the presence of buffer alone (basal control), the reference agonist or antagonist, or the “E559 polymorph. Following incubation, the cells were lysed and the appropriate fluorescent probe (Ca2+ flux, cAMP, or IP1) were added for 60 minutes to measure the fluorescence transfer at the appropriate wavelength using a microplate reader. The cellular agonist effect (EC50) was calculated as a percent of control response to a known reference agonist and the cellular antagonist effect (IC50) was calculated as a percent inhibition of control reference agonist response for each receptor.

[2] = target: T2, D2S dopamine receptor (Homo sapiens, UniProt P14416); experiment: Functional assay in HEK-293 cells (cAMP); format: cell-based
T2 construct: expressed in transfected cells; host or cells: HEK-293
Description: as §1

[3] = target: T3, D4 dopamine receptor (Homo sapiens, UniProt P21917); experiment: BRET-based G protein dissociation assay; format: cell-based
T3 sequence (P21917 1-419): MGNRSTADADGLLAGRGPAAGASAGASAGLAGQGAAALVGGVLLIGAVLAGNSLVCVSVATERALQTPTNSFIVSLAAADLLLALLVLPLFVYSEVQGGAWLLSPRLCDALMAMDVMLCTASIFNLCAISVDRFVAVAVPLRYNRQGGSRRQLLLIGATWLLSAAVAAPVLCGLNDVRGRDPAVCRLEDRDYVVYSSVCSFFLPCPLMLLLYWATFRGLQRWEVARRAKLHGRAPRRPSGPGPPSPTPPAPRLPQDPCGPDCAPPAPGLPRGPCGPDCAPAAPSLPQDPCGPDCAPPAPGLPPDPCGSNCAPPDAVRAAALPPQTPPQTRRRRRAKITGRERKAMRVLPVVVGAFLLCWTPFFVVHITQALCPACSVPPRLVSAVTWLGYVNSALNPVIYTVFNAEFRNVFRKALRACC

[4] = target: ADRa2B (α2B adrenergic receptor) (Homo sapiens, UniProt P18089); experiment: BRET-based G protein dissociation assay; format: cell-based
[5] = target: H4 histaminergic receptor (Homo sapiens, UniProt Q9H3N8); experiment: BRET-based G protein dissociation assay; format: cell-based
[6] = target: CHRM2 (M2 muscarinic receptor) (Homo sapiens, UniProt P08172); experiment: BRET-based G protein dissociation assay; format: cell-based
[7] = target: T4, 5-HT1F (Homo sapiens, UniProt P30939); experiment: Functional assay (cAMP); format: cell-based
T4 construct: expressed in transfected cells; host or cells: HEK-293
T4 sequence (P30939 1-366): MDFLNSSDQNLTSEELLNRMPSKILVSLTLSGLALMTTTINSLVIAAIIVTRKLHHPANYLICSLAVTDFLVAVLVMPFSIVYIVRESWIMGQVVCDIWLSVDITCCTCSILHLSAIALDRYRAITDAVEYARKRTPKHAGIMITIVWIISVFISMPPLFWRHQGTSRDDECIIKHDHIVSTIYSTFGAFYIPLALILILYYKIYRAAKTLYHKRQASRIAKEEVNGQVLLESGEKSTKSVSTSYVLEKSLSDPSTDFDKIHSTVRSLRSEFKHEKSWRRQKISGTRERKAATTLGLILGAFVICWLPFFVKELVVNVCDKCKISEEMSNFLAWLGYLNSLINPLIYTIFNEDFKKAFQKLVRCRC
Description: as §1
The functional agonist activity [EC50 (nM), Emax], and functional antagonist activity [IC50 (nM)] of the 5R:8S stereoisomer of the “E559 polymorph” (5R:8S E558) was compared with the “E559 polymorph” (a 5R:8R stereoisomer) at selected serotonin receptors. The assays were performed as described in Example 6.

[8] = target: T5, 5-HT2A receptor (Homo sapiens, UniProt P28223)
[9] = target: D1 dopamine receptor (Homo sapiens, UniProt P21728); experiment: Functional assay in HEK-293 cells (cAMP); format: cell-based; set-up: expressed in transfected cells; host or cells: HEK-293
Description: Neuro-receptor binding and functional effects of the “E559 polymorph” was examined by analyzing binding affinity [Ki (nM)], functional agonist activity [EC50 (nM)], and functional antagonist activity [IC50 (nM)] against a panel of key receptors in neurophysiological disorders. Binding and functional assays were performed at “E559 polymorph” concentrations of 0.0003, 0.003, 0.01, 0.03, 0.1, 0.3, 1, and 10 μM. In binding assays, cell membrane homogenates, expressing each receptor target, were incubated with the corresponding radio-ligand in absence or presence of several concentration of the “E559 polymorph” compound. The measurement of binding affinity of the “E559 polymorph” is represented in TABLE XIII by Ki (nM) which was calculated as percent inhibition of the binding of a radioactively labeled reference ligand at each receptor. […] Following incubation, the cells were lysed and the appropriate fluorescent probe (Ca2+ flux, cAMP, or IP1) were added for 60 minutes to measure the fluorescence transfer at the appropriate wavelength using a microplate reader. The cellular agonist effect (EC50) was calculated as a percent of control response to a known reference agonist and the cellular antagonist effect (IC50) was calculated as a percent inhibition of control reference agonist response for each receptor.

[10] = target: T5, 5-HT2A receptor; experiment: 5-HT2A receptor internalization, NanoBit HiBit-fused 5-HT2A in HEK293T cells; format: cell-based; set-up: expressed in transfected cells; host or cells: HEK293T
Description: To assess the ability of the “E559 polymorph” to induce β-arrestin-mediated 5-HT2A receptor internalization in vitro, the loss of surface expression of 5-HT2A receptor was measured using a NanoBit N-terminal HiBit-fused 5-HT2A construct cloned in HEK293T cells (1:15 ratio 5-HT2A: β-arrestin2). In brief, cells were treated with serial dilution of test compounds for 1 hour or a specified time point.

[11] = percentage of the reference ligand-induced maximal response, read-out: Emax

T5 sequence (P28223 whole entry): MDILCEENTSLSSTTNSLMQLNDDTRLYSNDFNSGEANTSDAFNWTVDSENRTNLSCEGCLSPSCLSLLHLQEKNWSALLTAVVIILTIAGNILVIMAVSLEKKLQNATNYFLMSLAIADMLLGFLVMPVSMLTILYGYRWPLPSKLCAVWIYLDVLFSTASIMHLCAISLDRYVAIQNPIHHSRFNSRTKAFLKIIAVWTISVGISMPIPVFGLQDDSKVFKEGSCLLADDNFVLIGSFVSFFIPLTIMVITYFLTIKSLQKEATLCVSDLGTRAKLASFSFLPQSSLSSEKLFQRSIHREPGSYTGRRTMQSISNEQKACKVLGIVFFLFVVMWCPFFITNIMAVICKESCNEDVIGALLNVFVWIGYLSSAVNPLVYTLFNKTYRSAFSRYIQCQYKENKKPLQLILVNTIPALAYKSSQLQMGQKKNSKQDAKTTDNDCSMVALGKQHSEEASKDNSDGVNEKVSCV
Sequence of H4 histaminergic receptor (Q9H3N8 whole entry): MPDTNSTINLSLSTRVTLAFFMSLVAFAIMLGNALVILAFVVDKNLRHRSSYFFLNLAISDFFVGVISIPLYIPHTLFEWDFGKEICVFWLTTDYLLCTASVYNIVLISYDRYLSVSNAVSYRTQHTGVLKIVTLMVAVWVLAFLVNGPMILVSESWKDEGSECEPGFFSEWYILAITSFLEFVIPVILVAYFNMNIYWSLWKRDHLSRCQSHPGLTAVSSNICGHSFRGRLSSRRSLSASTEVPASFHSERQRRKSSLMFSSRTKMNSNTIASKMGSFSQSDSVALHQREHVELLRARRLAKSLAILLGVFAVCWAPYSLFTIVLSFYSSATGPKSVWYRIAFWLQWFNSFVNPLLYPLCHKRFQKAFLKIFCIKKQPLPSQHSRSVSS
Sequence of D1 dopamine receptor (P21728 whole entry): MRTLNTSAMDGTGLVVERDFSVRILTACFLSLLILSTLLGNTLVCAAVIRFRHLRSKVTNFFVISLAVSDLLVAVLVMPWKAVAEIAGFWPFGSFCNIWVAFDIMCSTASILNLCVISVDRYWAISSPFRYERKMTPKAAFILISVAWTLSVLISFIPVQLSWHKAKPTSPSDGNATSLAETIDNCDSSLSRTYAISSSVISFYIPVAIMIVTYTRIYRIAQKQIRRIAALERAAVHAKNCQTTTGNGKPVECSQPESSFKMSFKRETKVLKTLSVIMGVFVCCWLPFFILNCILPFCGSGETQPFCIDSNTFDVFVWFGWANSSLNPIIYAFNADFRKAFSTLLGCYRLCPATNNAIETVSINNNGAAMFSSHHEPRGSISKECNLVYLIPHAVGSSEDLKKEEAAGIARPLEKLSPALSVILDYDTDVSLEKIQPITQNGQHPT
T2 sequence (P14416 1-414 isoform P14416-2): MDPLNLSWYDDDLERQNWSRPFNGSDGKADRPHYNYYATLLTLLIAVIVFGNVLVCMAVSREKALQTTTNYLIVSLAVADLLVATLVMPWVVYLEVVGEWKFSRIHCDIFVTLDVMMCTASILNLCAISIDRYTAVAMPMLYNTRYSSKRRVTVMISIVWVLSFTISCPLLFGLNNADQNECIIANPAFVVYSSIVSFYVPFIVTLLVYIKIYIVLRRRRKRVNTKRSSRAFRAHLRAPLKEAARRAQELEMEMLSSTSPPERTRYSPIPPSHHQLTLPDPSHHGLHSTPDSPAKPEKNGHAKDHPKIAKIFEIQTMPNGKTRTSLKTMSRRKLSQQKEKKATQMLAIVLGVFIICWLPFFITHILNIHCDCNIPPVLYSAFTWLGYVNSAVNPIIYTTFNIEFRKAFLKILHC
Sequence of CHRM2 (M2 muscarinic receptor) (P08172 whole entry): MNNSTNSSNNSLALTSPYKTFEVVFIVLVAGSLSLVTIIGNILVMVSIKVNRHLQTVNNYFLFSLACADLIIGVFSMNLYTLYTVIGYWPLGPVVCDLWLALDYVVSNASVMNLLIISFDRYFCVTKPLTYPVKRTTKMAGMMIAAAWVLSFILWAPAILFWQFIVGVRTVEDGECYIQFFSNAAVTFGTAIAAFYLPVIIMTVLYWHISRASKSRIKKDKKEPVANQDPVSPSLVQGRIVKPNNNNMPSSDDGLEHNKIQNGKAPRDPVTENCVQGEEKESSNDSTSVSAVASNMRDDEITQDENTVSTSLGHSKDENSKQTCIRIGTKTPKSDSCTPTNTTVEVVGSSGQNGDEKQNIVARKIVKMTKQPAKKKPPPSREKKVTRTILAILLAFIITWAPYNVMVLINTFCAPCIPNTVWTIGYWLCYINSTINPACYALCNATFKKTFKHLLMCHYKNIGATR
Sequence of ADRa2B (α2B adrenergic receptor) (P18089 whole entry): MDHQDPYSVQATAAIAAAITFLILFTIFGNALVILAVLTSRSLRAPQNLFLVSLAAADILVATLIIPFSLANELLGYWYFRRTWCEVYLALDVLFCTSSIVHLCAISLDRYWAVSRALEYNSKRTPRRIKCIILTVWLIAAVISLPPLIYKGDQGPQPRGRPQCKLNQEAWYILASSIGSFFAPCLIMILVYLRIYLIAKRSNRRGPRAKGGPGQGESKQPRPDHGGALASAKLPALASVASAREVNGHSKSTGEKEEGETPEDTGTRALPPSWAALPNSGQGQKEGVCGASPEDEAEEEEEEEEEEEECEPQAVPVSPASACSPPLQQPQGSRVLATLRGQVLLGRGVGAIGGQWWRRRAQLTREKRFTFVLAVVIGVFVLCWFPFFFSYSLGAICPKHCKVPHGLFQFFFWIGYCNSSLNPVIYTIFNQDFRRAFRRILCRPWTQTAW

SMILES: CCN(CC)C(=O)[C@@H]1C=C2c3cccc4[nH]c(Br)c(c34)C[C@H]2N(C)C1 [E559, (5R, 8R)-2-Bromo-9,10-didehydro-N,N-diethyl-6-methylergoline-8-carboxamide hemi-D-tartrate]
- EC50 [1]: 730 nM
- IC50 [1]: > 10000 nM
- EC50 [2]: > 10000 nM
- IC50 [2]: > 10000 nM
- EC50 [3]: 1.22 nM
- Emax [3]: 67.3%
- Kb [4]: 79.2 nM
- Emax [5]: 17.4%
- EC50 [6]: 214 nM
- EC50 [7]: 13.8 nM
- Emax ([7]; cAMP, ligand 5-HT, read-out: Functional Assay (agonist) Emax): 92.6%
- functional (agonist) activity at 5-HT2A ([8]; FIG. 15, FIG. 16A/B): potent partial agonist of 5-HT2A
- antagonism of 5-HT activation of 5-HT2A ([8]; Gq dissociation and β-arrestin2 recruitment, FIG. 17A/B): antagonizes the 5-HT activation
- EC50 [9]: > 10000 nM
- IC50 [9]: 820 nM
- internalization of the 5-HT2A receptor (loss of surface expression) ([10]; single 1 hour treatment): only exhibits weak internalization of the 5-HT2A receptor

SMILES: CCN(CC)C(=O)[C@@H]1C=C2c3cccc4[nH]cc(c34)C[C@H]2N(C)C1 [LSD, lysergic acid diethylamide, reference compound]
- EC50 ([3]; agonist mode, read-out: EC50): 4.03 nM
- Emax [3, 11]: 91.9%
- EC50 ([5]; agonist mode): 0.09 nM
- Emax [5, 11]: 15%
- EC50 ([6]; agonist mode, read-out: EC50): > 10000 nM
- functional (agonist) activity at 5-HT2A [8]: potent almost full 5-HT2A agonist
- internalization of the 5-HT2A receptor (loss of surface expression) [10]: potent internalization
